Test results: patent US20220241168A1, “COMPOSITION FOR STIMULATING BETA-ENDORPHIN PRODUCTION COMPRISING SANSHOOL” (AMOREPACIFIC CORPORATION, priority 2021, published 2022)

How the values were obtained:
[1] = system: normal human epidermal cells, keratinocyte; test: β-endorphin secretion from normal human epidermal keratinocytes (β-endorphin EIA kit); format: cell-based; conditions: for amount of β-endorphin secreted from keratinocyte: 10 μM, six hours, compared to control group (FIG. 1, FIG. 2); for β-endorphin production effect: six hours (FIG. 3)
Procedure: First, normal human epidermal cells, keratinocyte (Gibco), were cultured from a 6-well plate to a confluence point at 37° C. under 5% CO2 culture conditions. In an embodiment of the present disclosure, a keratinocyte-SFM (Gibco) medium was treated with 10 μM of each of hydroxy-α-sanshool (CHEMFACES®; Example 1), hydroxy-γ-sanshool (Chengdu Biopurify Phytochemicals Ltd.; Example 2), hydroxy-β-sanshool (Chengdu Biopurify Phytochemicals Ltd.; Example 3), hydroxy-ε-sanshool (Chengdu Biopurify Phytochemicals Ltd.; Example 4), cannabidiol (CBD) (Sigma-Aldrich®; Comparative Example 1), honokiol (Sigma-Aldrich®; Comparative Example 2), magnolol (Sigma-Aldrich®; Comparative Example 3), and palmitoylethanolamide (PEA) (Sigma-Aldrich®; Comparative Example 4), which are known as CB2 agonists as Comparative Examples, and cultured at 37° C. for six hours under 5% CO2 culture conditions. Afterwards, each medium was collected, and a β-endorphin EIA kit (EK-022-14, Phoenix pharmaceuticals, Belmont, Calif.) was used to quantify an amount of β-endorphin secreted from keratinocyte in each medium. Student t-test was used for statistical significance between specimens, and when a value of p-value is less than or equal to 0.05, it was analyzed as statistically significant. (*p<0.05, **p<0.01, ***p<0.001)
First, normal human epidermal cells, keratinocyte (Gibco), were cultured from a 6-well plate to a confluence point at 37° C. under 5% CO2 culture conditions. […] Afterwards, each medium was collected, and a β-endorphin EIA kit (EK-022-14, Phoenix pharmaceuticals, Belmont, Calif.) was used to quantify an amount of β-endorphin secreted from keratinocyte in each medium. Student t-test was used for statistical significance between specimens, and when a value of p-value is less than or equal to 0.05, it was analyzed as statistically significant. (*p<0.05, **p<0.01, ***p<0.001)

[2] = system: human-derived keratinocyte, HaCaT; test: IL-1b release from HaCaT under poly (I:C)-induced allergic contact dermatitis conditions (ELISA); format: cell-based; conditions: 10 μM, poly (I:C) 15 ng/ml, 24 hours
Procedure: First, a human-derived keratinocyte, HaCaT, was dispensed in a 24-well plate together with a Dulbecco's modified eagle's medium (DMEM) containing 10% fetal bovine serum (FBS), and cultured at 37° C. under 5% CO2 culture conditions for 24 hours. Afterwards, while inducing allergic contact dermatitis conditions to the HaCat with 15 ng/ml of poly (I:C), each of Example 1 (hydroxy-α-sanshool) and Example 2 (hydroxy-γ-sanshool), which were each dissolved in dimethyl sulfoxide (DMSO), were treated at 10 μM and dissolved in the medium. After 24 hours, each medium was collected, and IL-1b ELISA kit (R&D systems) was used to measure an amount of cytokine IL-1b according to a manufacturer's method.

[3] = sanshool-containing drug ingested; cited from earlier work
CB2 receptor = conditions: intraperitoneal administration; cited from earlier work

| Compound | amount of β-endorphin secreted from keratinocyte [1] | IL-1b [2] | other results |
| --- | --- | --- | --- |
| C=CCc1ccc(O)c(-c2cc(CC=C)ccc2O)c1 [magnolol, reference compound] | further decrease in an amount of β-endorphin secretion compared to a control group | – | – |
| C=CCc1ccc(O)c(-c2ccc(O)c(CC=C)c2)c1 [honokiol, reference compound] | further decrease in an amount of β-endorphin secretion compared to a control group | – | – |
| C/C=C/C=C/C=C\CC/C=C/C=C/C(=O)NCC(C)(C)O [Example 2, hydroxy-γ-sanshool] | – | 11.2 pg/mL | – |
| sanshool | – | – | β-endorphin production effect ([1]; 0.00006 wt %): β-endorphin production effect was not shown; β-endorphin production effect ([1]; 0.006 wt % as printed): production of β-endorphin was induced; presence in plasma [3]: remained in plasma |
| C/C=C/C=C/C=C\CC/C=C/C(=O)NCC(C)(C)O [Example 1, hydroxy-α-sanshool] | – | 11.29 pg/mL | – |
| CN1CCCCC1Cn1cc(C(=O)c2cc([N+](=O)[O-])ccc2I)c2ccccc21 (centres unmarked) [AM1241] | – | – | endorphin secretion (CB2 receptor): had an effect on inducing endorphin secretion |
